Consider five molecules from patent US8518959B2, “Quinoxaline derivatives as antitumor agents” (Prolexys Pharmaceuticals, Inc., priority 2005, dated 2013).

One assay relates to HT-1080 xenografts. The assay is described as follows: HT-1080 tumor treatment study. In kind it is in vivo, mouse. The conditions noted are these: nude mice, 50 or 100 mg/Kg QD×5 days IP. As to the method: • Nude Balb/c (Nu/Nu strain, Charles River Laboratories), female, 5-6 week old (˜20 g average body weight). Formulation of Test Articles:
Both compounds were formulated in an identical manner. For the 100 mg/kg dose level, each compound was delivered at a concentration of 10.0 mg/ml, in an injection volume of 0.2 ml. For the 50 mg/kg dose level, each compound was delivered at a concentration of 5.0 mg/ml, in an injection volume of 0.2 ml. For both dose levels, the vehicle contained 0.025% Tween-80, 0.01% benzyl alcohol, 35 mM acetic acid (HOAc), 100 mM potassium phosphate buffer, and 32 mM sucrose, pH 6.5.
• A: PRLX compound 6@100 mg/Kg, QD×5 days, IP, n=8 • B: PRLX compound 6@50 mg/Kg, QD×5 days, IP, n=8 • C: PRLX compound 5@100 mg/Kg, QD×5 days, IP, n=8 • D: PRLX compound 5@50 mg/Kg, QD×5 days, IP, n=8 • E: Vehicle Control, QD×5 days, IP, n=8 • F: Untreated Control, n=8 Treatment Schedule: […]
Starting on Day 1, all animals were weighed, and tumor dimensions (length (L) and width (W)) were measured, every other day. […]
The resulting tumor volume values were averaged for each study group for each time point, and were then plotted against time. Variance was expressed as standard error of the mean (±SEM).

The subject of another assay is PANC-1 xenografts. Briefly: PANC-1 tumor treatment study. It is filed as in vivo, mouse. As to conditions: nude mice, once a day for five consecutive days. The protocol: The experimental plan for the PANC-1 study was essentially identical to that of the HT-1080 study outlined above in Example 10 with the following exceptions: approximately 3040 mg fragment of passaged PANC-1 tumor tissue was implanted subcutaneously in the right flank of an immunodeficient nude mouse. Tumor growth was monitored daily and when the tumors reached approximately 100 mm^3, animals harboring similarly sized tumors were group matched and compound dosing was initiated. Administration of compound 5 occurred once a day for five consecutive days at the doses listed below. In the PANC-1 xenografts, gemcitabine, administered at the maximum tolerated dose for the model, was used as a control. The gemcitabine regimen was 180 mg/kg […] on every third day over a period of 9 days.

Assay [1] deals with BJ-TERT/LT/ST/RAS^V12 cells. Briefly: Nuclear morphology assay. It is filed as cell-based, human. As to conditions: fluorescence microscopy, 18 hours. An excerpt: Applicants sought to characterize the type of cell death induced by CPT and erastin in tumorigenic BJ-TERT/LT/ST/RAS^V12 cells. […] To determine whether erastin or CPT induces apoptosis in their system, Applicants monitored the nuclear morphology of CPT- and erastin-treated tumorigenic cells using fluorescence microscopy. […] Since nuclear morphological change is required of apoptotic cells, Applicants conclude that cell death induced by erastin is non-apoptotic. […] Additionally, nuclei remained intact in erastin-treated tumor cells (FIG. 9).
200,000 tumorigenic BJ-TERT/LT/ST/RAS^V12 cells were seeded in 2 mL on glass coverslips in each well of a six-well dish, treated with nothing (NT), 9 μM erastin or 1.1 μM camptothecin (CPT) in growth medium for 18 hours while incubating at 37° C. with 5% CO2. Nuclei were stained with 25 μg/mL Hoechst 33342 (Molecular Probes) and viewed using an oil immersion 100× objective on a fluorescence microscope.

In a further assay the test system is BJ primary cells. The assay is described as follows: Calcein AM viability assay, dilution series. It is filed as cell-based, human. An excerpt:
(§1) Described here is work carried out to identify compounds with increased potency or activity in the presence of hTERT, LT, ST, E6, E7 or RAS^V12. Although the work described herein made use of hTERT, LT, ST, E6, E7 and RAS^V12 as transforming genes, future studies can make use of a wide variety of cancer-associated alleles using this methodology in order to define the signaling networks that involve many oncogenes and tumor suppressors. Engineered cell lines with these genetic elements were used to screen 23,550 compounds, including 20,000 compounds from a combinatorial library, 1,990 compounds from the National Cancer Institute diversity collection, and 1,540 biologically active known compounds that were selected and purchased by Applicant and formatted into a screenable collection. […] Cell viability was measured using the dye calcein acetoxymethyl ester (calcein AM) (Wang et al., 1993, Hum. Immunol. 37, 264-270), which is a non-fluorescent compound that freely diffuses into cells. […]
(§2) Calcein acetoxylmethyl ester (AM) is a cell membrane-permeable, non-fluorescent compound that is cleaved by intracellular esterases to form the anionic, cell-impermeable, fluorescent compound calcein. […] Total fluorescence intensity in each well was recorded on a Packard Fusion platereader, and converted to a percent inhibition of signal by subtracting the instrument background and dividing by the average signal obtained when cells were not treated with any compound. […]
(§3) Mean RFU (relative fluorescence units) for untreated cells was calculated by averaging columns 1, 2, and 23 (wells with cells but lacking compounds). The calcein background was calculated by averaging column 24 (wells with calcein, but lacking cells). Percentage inhibition of each well was calculated as [1−(RFU−calcein control)/(untreated cell−calcein control)*100]. […]

Assay [2] concerns BJ-TERT/LT/ST/RAS^V12 tumorigenic cells. The assay is described as follows: Calcein AM viability assay, dilution series. As to conditions: ST- and RAS^V12-dependent. It is filed as cell-based, human.
From the text: as §1, §2, §3

For the molecule `CCOc1ccccc1-n1c(CN2CCNCC2)nc2ccccc2c1=O` [Compound 5, 3-(2-ethoxyphenyl)-2-(piperazin-1-ylmethyl)quinazolin-4(3H)-one], the “Antitumor effect in HT-1080 xenografts” value in the assay on HT-1080 xenografts is given as “induction of robust tumor regression”. For the same molecule, in the assay with PANC-1 xenografts, the “Antitumor effect in PANC-1 xenografts” value is given as “induction of tumor regression”.
Take `CC[C@@]1(O)C(=O)OCc2c1cc1n(c2=O)Cc2cc3ccccc3nc2-1` [Camptothecin]: in assay [1], the “Type of cell death / nuclear morphology” value was “karyorhexis and margination of chromatin were clearly visible”.
With `C=C1[C@@H](O)[C@@H]2O[C@]3(CC[C@H](/C=C/[C@@H](C)[C@@H]4CC(C)=C[C@@]5(O[C@H](C[C@@](C)(O)C(=O)O)CC[C@H]5O)O4)O3)CC[C@H]2O[C@@H]1[C@@H](O)C[C@H](C)[C@H]1O[C@@]2(CCCCO2)CC[C@H]1C` [okadaic acid], in the assay with BJ primary cells (okadaic acid 3.4 nM with camptothecin), the “Sensitization of BJ primary cells to camptothecin” value is recorded as “renders BJ cells sensitive to camptothecin”. Further, the “Effect on calcein AM viability staining of BJ cells” value with BJ primary cells (okadaic acid alone at 3.4 nM) is “no effect on its own”.
For `CCOc1ccccc1-n1c(C(C)N2CCN(C(=O)COc3ccc(Cl)cc3)CC2)nc2ccccc2c1=O` (centres unmarked) [Erastin], the “Time to irreversible cell death” value in assay [2] is 12 to 24 h.
In the case of `CCOc1ccccc1-n1c(C(C)N2CCNCC2)nc2ccccc2c1=O` (centres unmarked) [Compound 6], the “Antitumor effect in HT-1080 xenografts” value in the assay on HT-1080 xenografts is given as “induction of tumor growth inhibition”. In addition, the “Antitumor effect in PANC-1 xenografts” value in the assay on PANC-1 xenografts is recorded as “induction of tumor growth inhibition”.
